Active and inactive are the calls of the source. The rule behind the calls is not given here.
Columns and labels:
[1] = Cytotoxicity against mouse L5178 cells assessed as reduction in cell viability after 72 hrs by MTT assay; assay type: functional, cell-based; conditions: L5178, 72 h
[2] = Cytotoxicity against mouse L5178B1 cells transfected with pHa MDR1/A retrovirus assessed as reduction in cell viability after 72 hrs by MTT assay; assay type: functional, cell-based; conditions: MDR1, 72 h
NCI-H460 = test: Cytotoxicity against human NCI-H460 cells assessed as reduction in cell viability after 72 hrs by MTT assay; assay type: functional, cell-based; conditions: NCI-H460, 72 h
[3] = Cytotoxicity against human NCI-H460/R cells transfected with MDR assessed as reduction in cell viability after 72 hrs by MTT assay; assay type: functional, cell-based; conditions: NCI-H460, 72 h
A549 = test: Cytotoxicity against human A549 cells assessed as reduction in cell viability after 72 hrs by MTT assay; assay type: functional, cell-based; conditions: A549, 72 h
NCI-H661 = test: Cytotoxicity against human NCI-H661 cells assessed as reduction in cell viability after 72 hrs by MTT assay; assay type: functional, cell-based; conditions: NCI-H661, 72 h
HaCaT = test: Cytotoxicity against human HaCaT cells assessed as reduction in cell viability after 72 hrs by MTT assay; assay type: cell-based
MCF7 [4] = test: Cytotoxicity against human MCF7 cells assessed as reduction in cell viability after 72 hrs by MTT assay; assay type: functional, cell-based; conditions: MCF7, 72 h
HeLa = test: Cytotoxicity against human HeLa cells assessed as reduction in cell viability after 72 hrs by MTT assay; assay type: functional, cell-based
SiHa = test: Cytotoxicity against human SiHa cells assessed as reduction in cell viability after 72 hrs by MTT assay; assay type: functional, cell-based
[5] = target: T1, Serine/threonine-protein kinase Chk1 (Homo sapiens) (UniProt O14757); test: Inhibition of CHK1 phosphorylation at S345 in human MCF7 cells at 10 uM pretreated for 30 mins followed by 10 J/m'2 irradiation and measured after 1 hr by Western blot analysis; assay type: cell-based
T1 sequence (whole entry): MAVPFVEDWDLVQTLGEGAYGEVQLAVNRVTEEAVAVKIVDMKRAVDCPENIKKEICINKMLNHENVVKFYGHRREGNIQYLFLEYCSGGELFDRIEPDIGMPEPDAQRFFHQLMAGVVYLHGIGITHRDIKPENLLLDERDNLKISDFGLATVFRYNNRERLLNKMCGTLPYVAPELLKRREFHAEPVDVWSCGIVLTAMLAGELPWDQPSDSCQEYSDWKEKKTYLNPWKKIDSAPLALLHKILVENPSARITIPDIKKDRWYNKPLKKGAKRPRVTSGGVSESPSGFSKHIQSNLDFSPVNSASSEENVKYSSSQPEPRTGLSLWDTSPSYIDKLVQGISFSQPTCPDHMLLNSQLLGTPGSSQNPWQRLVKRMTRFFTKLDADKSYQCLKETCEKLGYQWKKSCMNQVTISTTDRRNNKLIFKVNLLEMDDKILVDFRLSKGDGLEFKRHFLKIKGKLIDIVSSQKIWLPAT

[6] = target: Serine/threonine-protein kinase Chk2 (Homo sapiens) (UniProt O96017); test: Inhibition of CHK2 phosphorylation at T68 in human MCF7 cells at 10 uM pretreated for 30 mins followed by 10 J/m'2 irradiation and measured after 1 hr by Western blot analysis; assay type: cell-based
Chain of Serine/threonine-protein kinase Chk2 (Homo sapiens) (O96017 whole entry): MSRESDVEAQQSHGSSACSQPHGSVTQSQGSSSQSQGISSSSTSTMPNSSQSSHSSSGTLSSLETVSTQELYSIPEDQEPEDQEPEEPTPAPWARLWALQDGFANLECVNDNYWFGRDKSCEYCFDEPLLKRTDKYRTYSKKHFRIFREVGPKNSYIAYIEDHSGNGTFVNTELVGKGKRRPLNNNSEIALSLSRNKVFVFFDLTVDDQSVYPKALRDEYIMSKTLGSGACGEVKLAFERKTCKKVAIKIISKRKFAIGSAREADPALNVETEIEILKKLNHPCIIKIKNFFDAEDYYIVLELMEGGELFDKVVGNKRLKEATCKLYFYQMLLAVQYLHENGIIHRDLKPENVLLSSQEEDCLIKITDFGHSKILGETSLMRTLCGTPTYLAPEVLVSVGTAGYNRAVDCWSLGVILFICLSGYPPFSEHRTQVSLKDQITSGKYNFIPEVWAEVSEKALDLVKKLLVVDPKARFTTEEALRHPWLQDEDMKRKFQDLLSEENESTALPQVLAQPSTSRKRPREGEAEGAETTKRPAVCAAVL

[7] = Antioxidant activity assessed as hydroxyl radical scavenging activity by measuring inhibition of damage to 2-deoxy-D-ribose after 3 mins by TBA-based Fenton reaction assay; assay type: functional
MCF7 [8] = test: Cytotoxicity against human MCF7 cells assessed as combination index measured at ED50 at H2O2/pcm ratio of 2.5:1 in presence of H2O2 after 48 hrs by MTT assay; assay type: functional
MCF7 [9] = test: Cytotoxicity against human MCF7 cells assessed as combination index measured at ED75 at H2O2/pcm ratio of 2.5:1 in presence of H2O2 after 48 hrs by MTT assay; assay type: functional
MCF7 [10] = test: Cytotoxicity against human MCF7 cells assessed as combination index measured at ED90 at H2O2/pcm ratio of 2.5:1 in presence of H2O2 after 48 hrs by MTT assay; assay type: functional
Liver = test: Antioxidant activity in rat liver microsomes assessed as reduction in lipid peroxidation; assay type: functional, Microsome
MCF7 [11] = test: Cytotoxicity against human MCF7 cells assessed as combination index measured at ED50 at H2O2/pcm ratio of 1.25:1 in presence of H2O2 after 48 hrs by MTT assay; assay type: functional
MCF7 [12] = test: Cytotoxicity against human MCF7 cells assessed as combination index measured at ED75 at H2O2/pcm ratio of 1.25:1 in presence of H2O2 after 48 hrs by MTT assay; assay type: functional
MCF7 [13] = test: Cytotoxicity against human MCF7 cells assessed as combination index measured at ED90 at H2O2/pcm ratio of 1.25:1 in presence of H2O2 after 48 hrs by MTT assay; assay type: functional
MCF7 [14] = test: Cytotoxicity against human MCF7 cells assessed as combination index measured at ED50 at H2O2/pcm ratio of 0.625:1 in presence of H2O2 after 48 hrs by MTT assay; assay type: functional
MCF7 [15] = test: Cytotoxicity against human MCF7 cells assessed as combination index measured at ED75 at H2O2/pcm ratio of 0.625:1 in presence of H2O2 after 48 hrs by MTT assay; assay type: functional
MCF7 [16] = test: Cytotoxicity against human MCF7 cells assessed as combination index measured at ED90 at H2O2/pcm ratio of 0.625:1 in presence of H2O2 after 48 hrs by MTT assay; assay type: functional
[17] = Stability in MeOH and H2O2 by HPLC-PDA assay; assay type: physicochemical
[18] = Drug metabolism assessed as methyl 3-(1-hydroxy-4-oxocyclohexa-2,5-dienyl)acrylate formation by reverse phase-HPLC and HPLC-MS analysis based Fenton reaction assay

Structure (SMILES): O=Cc1ccc(O)cc1 [4-HYDROXYBENZALDEHYDE]
- IC50 [1]: > 150 µM
- IC50 [2]: > 150 µM

Structure (SMILES): COC(=O)/C=C/c1ccc(O)cc1 [METHYL P-HYDROXYCINNAMATE]
- IC50 [1]: 126 µM
- IC50 [2]: > 150 µM
- IC50 (NCI-H460): 120 µM
- IC50 [3]: 1040 µM
- IC50 (A549): 323 µM
- IC50 (NCI-H661): 289 µM
- IC50 (HaCaT): 311 µM
- IC50 (MCF7 [4]): > 400 µM
- IC50 (HeLa): > 150 µM
- IC50 (SiHa): > 150 µM
- inhibition [5]: inactive
- inhibition [6]: inactive
- IC50 [7]: 345 µM
- CI (MCF7 [8]): 0.79
- CI (MCF7 [9]): 0.6
- CI (MCF7 [10]): 0.45
- IC50 (Liver): 0.4 µM
- CI (MCF7 [11]): 0.93
- CI (MCF7 [12]): 0.6
- CI (MCF7 [13]): 0.39
- CI (MCF7 [14]): 1.06
- CI (MCF7 [15]): 0.68
- CI (MCF7 [16]): 0.44
- Stability [17]: <= 92 hr
- Drug metabolism [18]: Metabolite detected

— ChEMBL document CHEMBL4422633, “Antioxidant-Inspired Drug Discovery: Antitumor Metabolite Is Formed in Situ from a Hydroxycinnamic Acid Derivative upon Free-Radical Scavenging” (J Med Chem, 2019)
